Seven compounds from ChEMBL document CHEMBL2439988, “Inhibition of human carbonic anhydrase isoforms I-XIV with sulfonamides incorporating fluorine and 1,3,5-triazine moieties” (Bioorg Med Chem, 2013) can be followed below.

Experiment [1] addresses Carbonic anhydrase 13 (Homo sapiens, UniProt Q8N1Q1). The experiment in a line: Inhibition of human recombinant carbonic anhydrase13 cytosolic isoform expressed in Escherichia coli BL21 preincubated for 15 mins by stopped-flow CO2 hydration assay.
Experiment [2] has as its target Carbonic anhydrase 7 (Homo sapiens, UniProt P43166). The experiment can be described thus: Inhibition of human recombinant carbonic anhydrase7 cytosolic isoform expressed in Escherichia coli BL21 preincubated for 15 mins by stopped-flow CO2 hydration assay.
The target in experiment [3] is Carbonic anhydrase 1 (Homo sapiens, UniProt P00915). The experiment in a line: Inhibition of human recombinant carbonic anhydrase1 cytosolic isoform expressed in Escherichia coli BL21 preincubated for 15 mins by stopped-flow CO2 hydration assay.
Chain of Carbonic anhydrase 1 (P00915 whole entry, canonical isoform): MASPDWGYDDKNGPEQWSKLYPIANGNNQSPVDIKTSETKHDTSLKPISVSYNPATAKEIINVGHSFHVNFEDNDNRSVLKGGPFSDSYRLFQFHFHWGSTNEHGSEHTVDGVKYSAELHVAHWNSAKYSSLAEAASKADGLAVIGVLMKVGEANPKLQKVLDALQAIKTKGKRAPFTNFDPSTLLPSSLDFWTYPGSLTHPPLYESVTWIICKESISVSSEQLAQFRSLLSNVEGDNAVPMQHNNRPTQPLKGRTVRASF
In experiment [4] the target is Carbonic anhydrase 2 (Homo sapiens, UniProt P00918). The experiment in a line: Inhibition of human recombinant carbonic anhydrase2 cytosolic isoform expressed in Escherichia coli BL21 preincubated for 15 mins by stopped-flow CO2 hydration assay.
Experiment [5] has as its target Carbonic anhydrase 12 (Homo sapiens, UniProt O43570). The experiment in a line: Inhibition of human recombinant carbonic anhydrase12 transmembrane isoform expressed in Escherichia coli BL21 preincubated for 15 mins by stopped-flow CO2 hydration assay.
In experiment [6] the target is Carbonic anhydrase 14 (Homo sapiens, UniProt Q9ULX7). The experiment can be described thus: Inhibition of human recombinant carbonic anhydrase14 transmembrane isoform expressed in Escherichia coli BL21 preincubated for 15 mins by stopped-flow CO2 hydration assay.
Chain of Carbonic anhydrase 14 (Q9ULX7 whole entry, canonical isoform): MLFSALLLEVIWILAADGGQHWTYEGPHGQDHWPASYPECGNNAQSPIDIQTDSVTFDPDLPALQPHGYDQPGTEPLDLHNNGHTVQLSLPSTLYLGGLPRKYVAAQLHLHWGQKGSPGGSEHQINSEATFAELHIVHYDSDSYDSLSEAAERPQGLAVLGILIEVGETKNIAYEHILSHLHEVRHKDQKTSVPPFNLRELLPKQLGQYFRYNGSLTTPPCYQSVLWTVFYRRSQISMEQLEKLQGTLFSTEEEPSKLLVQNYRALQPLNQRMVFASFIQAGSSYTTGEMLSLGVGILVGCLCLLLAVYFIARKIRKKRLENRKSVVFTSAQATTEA
For experiment [7], the target named is Carbonic anhydrase 6 (Homo sapiens, UniProt P23280). The experiment in a line: Inhibition of human recombinant carbonic anhydrase6 secreted isoform expressed in Escherichia coli BL21 preincubated for 15 mins by stopped-flow CO2 hydration assay.
Chain of Carbonic anhydrase 6 (P23280 whole entry, canonical isoform): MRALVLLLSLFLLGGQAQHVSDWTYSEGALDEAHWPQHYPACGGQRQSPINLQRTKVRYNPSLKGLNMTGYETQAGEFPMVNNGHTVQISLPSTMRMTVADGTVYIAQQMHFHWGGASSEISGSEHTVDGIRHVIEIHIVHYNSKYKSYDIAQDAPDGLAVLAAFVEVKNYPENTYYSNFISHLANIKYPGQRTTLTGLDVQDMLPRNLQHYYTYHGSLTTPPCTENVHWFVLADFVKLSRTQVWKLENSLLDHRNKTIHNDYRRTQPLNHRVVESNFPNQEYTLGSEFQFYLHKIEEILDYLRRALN
In experiment [8] the target is Carbonic anhydrase 4 (Homo sapiens, UniProt P22748). The experiment in a line: Inhibition of human recombinant carbonic anhydrase4 membrane-bound isoform expressed in Escherichia coli BL21 preincubated for 15 mins by stopped-flow CO2 hydration assay.
Chain of Carbonic anhydrase 4 (P22748 whole entry, canonical isoform): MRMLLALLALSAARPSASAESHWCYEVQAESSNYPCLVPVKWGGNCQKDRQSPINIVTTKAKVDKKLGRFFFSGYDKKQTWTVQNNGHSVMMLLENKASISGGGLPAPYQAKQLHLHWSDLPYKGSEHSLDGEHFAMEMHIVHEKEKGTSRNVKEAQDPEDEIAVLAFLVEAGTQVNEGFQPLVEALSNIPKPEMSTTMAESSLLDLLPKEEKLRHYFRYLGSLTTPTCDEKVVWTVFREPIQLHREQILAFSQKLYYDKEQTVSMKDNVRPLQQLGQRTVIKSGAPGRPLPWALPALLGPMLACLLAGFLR
The target of experiment [9] is Carbonic anhydrase 5A, mitochondrial (Homo sapiens, UniProt P35218). The experiment can be described thus: Inhibition of human recombinant carbonic anhydrase5A mitochondrial isoform expressed in Escherichia coli BL21 preincubated for 15 mins by stopped-flow CO2 hydration assay.
Chain of Carbonic anhydrase 5A, mitochondrial (P35218 whole entry, canonical isoform): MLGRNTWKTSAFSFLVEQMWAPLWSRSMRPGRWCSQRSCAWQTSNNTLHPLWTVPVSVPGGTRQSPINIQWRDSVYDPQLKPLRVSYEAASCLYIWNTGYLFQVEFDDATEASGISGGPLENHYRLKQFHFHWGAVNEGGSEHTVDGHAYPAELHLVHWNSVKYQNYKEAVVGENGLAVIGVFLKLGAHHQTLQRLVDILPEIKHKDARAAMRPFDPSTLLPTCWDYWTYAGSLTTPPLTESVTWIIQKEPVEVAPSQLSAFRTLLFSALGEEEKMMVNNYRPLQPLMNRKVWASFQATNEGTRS
Experiment [10] concerns the target Carbonic anhydrase 3 (Homo sapiens, UniProt P07451). The experiment can be described thus: Inhibition of human recombinant carbonic anhydrase3 cytosolic isoform expressed in Escherichia coli BL21 preincubated for 15 mins by stopped-flow CO2 hydration assay.
Experiment [11] concerns the target Carbonic anhydrase 9 (Homo sapiens, UniProt Q16790). The experiment can be described thus: Inhibition of human recombinant carbonic anhydrase9 transmembrane isoform expressed in Escherichia coli BL21 preincubated for 15 mins by stopped-flow CO2 hydration assay.

Chain of Carbonic anhydrase 12 (O43570 whole entry, canonical isoform): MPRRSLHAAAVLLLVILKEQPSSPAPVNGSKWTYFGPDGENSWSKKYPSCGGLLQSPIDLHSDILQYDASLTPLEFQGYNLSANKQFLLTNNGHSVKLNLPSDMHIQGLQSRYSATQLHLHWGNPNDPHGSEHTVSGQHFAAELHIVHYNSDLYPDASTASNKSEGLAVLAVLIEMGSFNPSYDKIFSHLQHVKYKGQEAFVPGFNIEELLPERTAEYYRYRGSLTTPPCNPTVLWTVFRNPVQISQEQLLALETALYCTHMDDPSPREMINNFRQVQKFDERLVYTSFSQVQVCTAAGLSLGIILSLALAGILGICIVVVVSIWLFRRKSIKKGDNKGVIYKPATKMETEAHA
Chain of Carbonic anhydrase 3 (P07451 whole entry, canonical isoform): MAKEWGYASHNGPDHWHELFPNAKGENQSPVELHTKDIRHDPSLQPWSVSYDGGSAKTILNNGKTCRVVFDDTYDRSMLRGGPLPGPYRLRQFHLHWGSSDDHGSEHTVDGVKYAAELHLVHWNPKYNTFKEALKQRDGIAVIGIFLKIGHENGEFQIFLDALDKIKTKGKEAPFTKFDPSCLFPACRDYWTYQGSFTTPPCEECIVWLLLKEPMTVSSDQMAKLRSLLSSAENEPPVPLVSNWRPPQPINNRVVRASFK
Chain of Carbonic anhydrase 13 (Q8N1Q1 whole entry, canonical isoform): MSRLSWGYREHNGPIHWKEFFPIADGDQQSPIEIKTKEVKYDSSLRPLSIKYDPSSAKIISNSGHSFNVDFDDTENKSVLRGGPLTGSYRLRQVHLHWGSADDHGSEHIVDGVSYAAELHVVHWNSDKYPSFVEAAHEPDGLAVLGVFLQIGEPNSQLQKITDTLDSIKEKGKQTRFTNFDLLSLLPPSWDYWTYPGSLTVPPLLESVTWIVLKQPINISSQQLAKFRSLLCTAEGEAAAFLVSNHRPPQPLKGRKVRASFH
Chain of Carbonic anhydrase 7 (P43166 whole entry, canonical isoform): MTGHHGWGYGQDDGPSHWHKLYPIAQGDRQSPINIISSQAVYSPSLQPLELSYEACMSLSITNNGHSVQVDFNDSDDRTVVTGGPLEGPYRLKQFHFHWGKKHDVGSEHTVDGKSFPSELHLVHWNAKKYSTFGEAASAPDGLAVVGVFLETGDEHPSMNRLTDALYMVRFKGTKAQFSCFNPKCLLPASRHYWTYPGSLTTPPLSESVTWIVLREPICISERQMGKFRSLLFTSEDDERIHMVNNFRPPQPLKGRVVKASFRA

As usually defined, the Ki is the equilibrium dissociation constant of an inhibitor or competing ligand from its target. With `CNc1nc(NC)nc(Nc2ccc(S(N)(=O)=O)cc2)n1`, the Ki in [1] stood at 921 nM; in [2], 45 nM.

In the case of `NS(=O)(=O)c1ccc(Nc2nc(F)nc(F)n2)cc1`, the Ki in [3] worked out at 88 nM; in [4] it was 4.9 nM; in [1], 1030 nM; in [2] it was 6.2 nM; in [5], 10 nM.

For `NS(=O)(=O)c1ccc(CCNc2nc(F)nc(F)n2)cc1`, the Ki in [3] was 203 nM; in experiment [6] it was 42 nM; in [4], 7.1 nM; in [1] it was 470 nM; in experiment [7] it was 1390 nM; in experiment [8], 1360 nM. Besides, the Ki in experiment [9] was more than 10000 nM; in [2] it was 21.9 nM; in [10] it was 7010 nM; in experiment [5], 4.6 nM.

For the compound `NS(=O)(=O)c1ccc(Nc2nc(F)nc(NCCO)n2)cc1`, the Ki in [3] was 238 nM; in [4], 5.5 nM; in experiment [1], more than 10000 nM; in [11] it was 208 nM; in experiment [2], 8.5 nM; in [5], 17.5 nM.

For `CNc1nc(F)nc(Nc2ccc(S(N)(=O)=O)cc2)n1`, the Ki in [3] turned out to be 90 nM; in experiment [4], 5.4 nM; in experiment [1] it was 735 nM; in experiment [11], 228 nM; in experiment [2], 6.7 nM; in experiment [5], 15.4 nM.

Turning to `COC(=O)CNc1nc(F)nc(NCCc2ccc(S(N)(=O)=O)cc2)n1`, the Ki in [3] was 81.5 nM; in experiment [6] it was 214 nM; in experiment [4] it was 5.6 nM; in experiment [1] it was 602 nM; in [7] it was 167 nM; in experiment [8] it was 2740 nM. Further, the inhibition constant Ki turned out to be 199 nM in [11]; 650 nM in experiment [9]; 6.5 nM in experiment [2]; 6860 nM in [10]; 5 nM in [5].

As for `NS(=O)(=O)c1ccc(CCNc2nc(F)nc(NCC(=O)O)n2)cc1`, the Ki was 250 nM in [3]; 126 nM in experiment [6]; 5 nM in [4]; more than 10000 nM in experiment [1]; 148 nM in [7]; 3660 nM in experiment [8]. Moreover, the Ki stood at 214 nM in experiment [11]; 915 nM in experiment [9]; 8.3 nM in experiment [2]; 9020 nM in experiment [10]; 4.5 nM in experiment [5].
